Consider 32 compounds from ChEMBL document CHEMBL1157929, “Thioether benzenesulfonamide inhibitors of carbonic anhydrases II and IV: structure-based drug design, synthesis, and biological evaluation” (Bioorg Med Chem, 2010).

Molecules are shown by their SMILES. Values after ≈ are worked out from the molar mass of the structure shown.

A short description of one series: Solubility at pH 6.5 after 24 hrs by chemiluminescence assay. It counts as physicochemical. As to conditions: buffer.
The compound `CCNC(=O)c1cc(S(N)(=O)=O)cnc1Sc1ccccc1` returned a solubility at 24 h of 118 µM (≈ 39.8 µg/mL).

In the case of `COCCCNC(=O)c1cc(S(N)(=O)=O)cnc1Sc1ccc(F)c(F)c1`, the concentration in solution (solubility at 24 h) was 40.9 µM (≈ 17.1 µg/mL). Turning to `NS(=O)(=O)c1cnc(Sc2ccccc2)c(C(=O)NCCc2ccccc2)c1`, the solubility at 24 h was below 22.2 µM. On to `COc1ccc(CNC(=O)c2cc(S(N)(=O)=O)cnc2Sc2ccc(F)c(F)c2)cc1`, for which the solubility at 24 h is below 19.9 µM. The compound `COCCCNC(=O)c1cc(S(N)(=O)=O)cnc1Sc1cccc(F)c1` came in with a solubility at 24 h of 89.6 µM (≈ 35.8 µg/mL). This lies in the double-digit micromolar range. For `NS(=O)(=O)c1ccc(Sc2c(F)c(F)cc(F)c2F)c(C(=O)NCCc2ccccn2)c1`, the solubility at 24 h amounted to 211 µM (≈ 102 µg/mL). The compound `CCNCc1cc(S(N)(=O)=O)cnc1Sc1ccc(F)c(F)c1` gave a solubility at 24 h of 449 µM (≈ 161 µg/mL). `COCCCNCc1cc(S(N)(=O)=O)cnc1Sc1ccc(F)c(F)c1` registered a solubility at 24 h of 497 µM (≈ 201 µg/mL). For `CCNC(=O)c1cc(S(N)(=O)=O)cc(F)c1SCC(C)C`, the solubility at 24 h was 553 µM (≈ 185 µg/mL). As to `NS(=O)(=O)c1ccc(Sc2c(F)c(F)cc(F)c2F)nc1`, the solubility at 24 h amounted to 558 µM (≈ 189 µg/mL). In turn, `NS(=O)(=O)c1ccc(Sc2ccccc2)c(C(=O)NCc2ccccn2)c1` registered a solubility at 24 h above 275 µM. `COCCNC(=O)c1cc(S(N)(=O)=O)ccc1SCCc1ccccc1` returned a solubility at 24 h above 304 µM.

As to `CC(C)CNC(=O)c1cc(S(N)(=O)=O)ccc1SC(C)C`, the solubility at 24 h worked out at 689 µM (≈ 228 µg/mL). Regarding `CCNC(=O)c1cc(S(N)(=O)=O)ccc1SC1CCCC1`, the solubility at 24 h is 628 µM (≈ 206 µg/mL).

For the compound `CCNC(=O)c1cc(S(N)(=O)=O)ccc1Sc1ccccc1`, the concentration in solution (solubility at 24 h) came to 205 µM (≈ 69 µg/mL). This solubility at 24 h lies about 3.1-fold lower than the previous one. Regarding `NS(=O)(=O)c1ccc(Oc2ccccc2)c(C(=O)NCc2ccccc2)c1`, the solubility at 24 h amounted to 28.5 µM (≈ 10.9 µg/mL). Still for that read-out and setting: the result for `NS(=O)(=O)c1ccc(SCc2ccccc2)c(C(=O)NCc2ccccc2)c1` reads below 24.2 µM; that for `NS(=O)(=O)c1ccc(Sc2ccccc2CO)c(C(=O)NCc2ccccn2)c1`, above 258 µM.

Take `NS(=O)(=O)c1ccc(Sc2ccccn2)c(C(=O)NCc2ccccn2)c1`: the solubility at 24 h is above 253 µM. As for `CCNC(=O)c1cc(S(N)(=O)=O)cnc1Sc1cccc(F)c1`, the concentration in solution (solubility at 24 h) was 43.2 µM (≈ 15.4 µg/mL). In turn, `NS(=O)(=O)c1ccc(Sc2ccccc2)c(C(=O)NCc2ccccc2)c1` yielded a solubility at 24 h below 25.1 µM. On the same count and under the same terms, the result for `NS(=O)(=O)c1ccc(S(=O)(=O)c2ccccc2)c(C(=O)NCc2ccccc2)c1` reads 55.9 µM (≈ 24.1 µg/mL).

With `NS(=O)(=O)c1cnc(Sc2ccc(F)c(F)c2)c(CO)c1`, the solubility at 24 h is above 353 µM. On the same count and under the same terms, the result for `CN(C)CCNC(=O)c1cc(S(N)(=O)=O)cnc1Sc1ccccc1` reads above 265 µM; that for `COCCNC(=O)c1cc(S(N)(=O)=O)cnc1Sc1ccccc1`, 35.6 µM (≈ 13.1 µg/mL).

For `NS(=O)(=O)c1cnc(Sc2c(F)c(F)cc(F)c2F)c(C(=O)NCc2ccccn2)c1`, the solubility at 24 h is below 21.2 µM. With `CCNC(=O)c1cc(S(N)(=O)=O)cc(F)c1SC(C)C`, the solubility at 24 h is 498 µM (≈ 160 µg/mL).

In the case of `COCCCNC(=O)c1cc(S(N)(=O)=O)cnc1Sc1ccccc1`, the solubility at 24 h was above 287 µM. Still for that read-out and setting: the result for `CCCNC(=O)c1cc(S(N)(=O)=O)cnc1Sc1ccccc1` reads 156 µM (≈ 54.8 µg/mL); that for `COCCCNC(=O)c1cc(S(N)(=O)=O)cnc1Sc1c(F)c(F)cc(F)c1F`, 214 µM (≈ 97 µg/mL).

Consider `NCCCCNC(=O)c1cc(S(N)(=O)=O)cnc1Sc1c(F)c(F)cc(F)c1F`, for which the solubility at 24 h was above 265 µM. Compound `COc1ccc(CCCNC(=O)c2cc(S(N)(=O)=O)cnc2Sc2c(F)c(F)cc(F)c2F)cc1` returned a solubility at 24 h below 19 µM.

The nature of another series: physchem. The settings on record: buffer, pH 6.5.
The compound `CCNC(=O)c1cc(S(N)(=O)=O)cc(F)c1SCC(C)C` yielded a thermodynamic solubility at 4 h of 395 µM (≈ 132 µg/mL).

With `NS(=O)(=O)c1ccc(Sc2c(F)c(F)cc(F)c2F)nc1`, the solubility (thermodynamic) at 4 h amounted to 231 µM (≈ 78.1 µg/mL). For `COCCCNC(=O)c1cc(S(N)(=O)=O)cnc1Sc1c(F)c(F)cc(F)c1F`, the thermodynamic solubility at 4 h was 124 µM (≈ 56.2 µg/mL). Compared with the last compound, the solubility thermodynamic at 4 h is about 1.9-fold lower. For `NCCCCNC(=O)c1cc(S(N)(=O)=O)cnc1Sc1c(F)c(F)cc(F)c1F`, the solubility (thermodynamic) at 4 h is 3090 µM (≈ 1400 µg/mL).
